Measurements from publication PMC10056257 (Journal of medicinal chemistry, 2023).
Marks after values point to notes of the source that are not given here. Blank lines part the entries; values can stand above or below the compound they belong to.

Key:
[1] = system: Methicillin-resistant S. aureus (MRSA) ClpX; conditions: read-out: IC50, ClpX ATPase activity; cited from earlier work
S. typhimurium TA100 = conditions: positive control, TA100, S9−, 2.5 μg/plate
[2] = system: Anaerostipes caccae DSM 14662; experiment: MIC against anaerobic bacteria; format: cell-based; conditions: A. caccae DSM 14662, anaerobic
[3] = system: Bacteroides thetaiotaomicron DSM 2079; experiment: MIC against anaerobic bacteria; format: cell-based; conditions: B. thetaiotaomicron DSM 2079, anaerobic
Escherichia coli K12 = experiment: MIC, broth microdilution; format: cell-based; conditions: E. coli K12
[4] = system: Acinetobacter baumannii 2208; experiment: MIC, broth microdilution; format: cell-based; conditions: A. baumannii 2208
[5] = system: Pseudomonas aeruginosa PA01; experiment: MIC, broth microdilution; format: cell-based; conditions: P. aeruginosa PA01
[6] = system: E. coli nonpathogenic ATCC MG1655; experiment: MIC determination; format: cell-based, Escherichia coli
S. aureus USA 300 JE2 = experiment: MIC, broth microdilution; format: cell-based, Staphylococcus aureus
[7] = system: Lactobacillus plantarum DSM 20174; experiment: MIC against L. plantarum; format: cell-based; conditions: L. plantarum DSM 20174
[8] = system: Lactobacillus rhamnosus CGMCC 1.3724; experiment: MIC against L. rhamnosus; format: cell-based; conditions: L. rhamnosus CGMCC 1.3724
[9] = Simulated intestinal fluid stability; format: in vitro ADME; conditions: SIF pH 7.60 with pancreatin, 24 h

Compound: O=C1C2=C(Nc3ccccc3SC2c2cccc(O)c2)c2ccccc21 (stereo not shown) [compound 334, 11-(3-Hydroxyphenyl)-5,11-dihydro-12H-benzo[b]indeno[1,2-e][1,4]thiazepin-12-one]
IC50 [1]: 800 nM

Compound: Sodium azide
number of revertants/plate (S. typhimurium TA100): 260.70 ± 15.30^e revertants/plate

MIC [2]: no susceptibility
Compound: CC[C@H]1OC(=O)[C@H](C)[C@@H](O[C@H]2C[C@@](C)(OC)[C@@H](O)[C@H](C)O2)[C@H](C)[C@@H](O[C@@H]2O[C@H](C)C[C@H](N(C)C)[C@H]2O)[C@](C)(O)C[C@@H](C)CN(C)[C@H](C)[C@@H](O)[C@]1(C)O [AZM, azithromycin, reference compound]

Compound: N#Cc1ccccc1C1Sc2ccccc2NC2=C1C(=O)c1ccccc12 (stereo not shown) [5a, 2-(12-Oxo-11,12-dihydro-5H-benzo[b]indeno[1,2-e][1,4]thiazepin-11-yl)benzonitrile]
MIC [2]: completely inactive
MIC [3]: completely inactive
MIC (Escherichia coli K12): inactive
MIC [4]: inactive
MIC [5]: inactive
MIC [6]: completely inactive
MIC (S. aureus USA 300 JE2): inactive
MIC [7]: no antibacterial activity
MIC [8]: no antibacterial activity
percentage of drug remaining [9]: around 85%
